This assay has as its system Gram positive and Gram negative bacteria. Briefly: minimum inhibitory concentration of bismuth. The assay is classed as cell-based. As to the method:
In particular, in one embodiment, antimicrobial lipophilic bismuth dimercaptopropanol nanoparticles (BisBAL NPs) may be used. In one embodiment, the bismuth concentration on the membrane surface may be approximately 0.437 g/m^2. In one embodiment, the toxic range of Bi^+3 concentration (minimum inhibitory concentration) for Gram positive and Gram negative bacteria is 15-16 μM. […] In one embodiment, the bismuth nanoparticles are roughly spherical and are approximately 20 nm wide. […] In another embodiment, other antibacterial nanoparticles are also contemplated, such as, but not limited to Zinc Oxide (ZnO), Copper Oxide (CuO), Iron Oxide (Fe2O3), and Silver (Ag).

Consider `[Bi+3]` [Bi^+3], for which the “toxic range of Bi^+3 concentration (minimum inhibitory concentration)” value is 15 to 16 µM.
